In PubChem BioAssay (NCI) one finds GI50 and TGI data, which are given here for ten compounds.

Test systems include ACHN renal; EKVX NSCLC; IGROV1 ovarian; MDA-MB-231 breast; MDA-MB-435; MOLT-4 leukemia; NCI-H522 lung; RPMI-8226 leukemia.
Holding throughout (experiment): NCI tumour cell line growth inhibition, 48 h

“And” between values parts separate entries of the source, which are not always exact repeats. Identical values can stand only once.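 1) Cells in 96-well plates. 2) Compound, 48 h, 5 concentrations. 3) Linear interpolation between surrounding doses. 4) Unreached endpoint = highest concentration. Here, GI50 denotes the concentration required for 50% inhibition of growth. The concentration for full growth arrest is given as TGI.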 A value given as a limit tells only on which side of the number the result lay.

For `COc1ccc(C2=C(c3ccccc3)C(=O)N3CCCC3C2)cc1` (stereo unspecified), the GI50 in the experiment with ACHN renal is 2.39 µM; with EKVX NSCLC, above 82.9 µM; in the experiment on IGROV1 ovarian, 8.51 µM; with MDA-MB-231 breast, above 36.1 µM; in the experiment on MDA-MB-435 it was 5.32 µM; in the experiment with NCI-H522 lung, 0.821 µM. The GI50 in the experiment on RPMI-8226 leukemia was 0.318 µM. Besides, the TGI in the experiment with ACHN renal, in the experiment with EKVX NSCLC, with IGROV1 ovarian, in the experiment on MDA-MB-231 breast, in the experiment with MDA-MB-435 and in the experiment with MOLT-4 leukemia was above 100 µM each time. In addition, the TGI with NCI-H522 lung and in the experiment on RPMI-8226 leukemia was above 100 µM throughout.

On to `COc1cc2c(Nc3ccc(-c4ccc(N)cc4)cc3)ncnc2c(OC)c1OC`, for which the GI50 with ACHN renal is 1.76 µM; in the experiment on EKVX NSCLC, 5.4 µM; in the experiment with IGROV1 ovarian, 12.6 µM; in the experiment on MDA-MB-231 breast, 2.9 µM; in the experiment on MDA-MB-435 it was 0.752 µM; in the experiment with MOLT-4 leukemia, 4.05 µM. Moreover, the GI50 with NCI-H522 lung was 3.15 µM; in the experiment with RPMI-8226 leukemia it was 3.78 µM. For the same compound, the TGI was above 100 µM with ACHN renal; above 100 µM with EKVX NSCLC; above 100 µM in the experiment on IGROV1 ovarian; above 100 µM in the experiment with MDA-MB-231 breast; 47.1 µM in the experiment on MDA-MB-435; above 100 µM with MOLT-4 leukemia. Also, the TGI in the experiment on NCI-H522 lung was above 80.9 µM; with RPMI-8226 leukemia, 41.4 µM.

Regarding `Cn1cc(-c2csc(-c3ccccc3)n2)c2cccnc21`, the GI50 is 17.1 µM in the experiment on ACHN renal; 5.2 µM in the experiment with EKVX NSCLC; 16.5 µM in the experiment with IGROV1 ovarian; 13.5 µM in the experiment with MDA-MB-231 breast; 11.2 µM with MDA-MB-435; 10.3 µM in the experiment on MOLT-4 leukemia. Further, the GI50 in the experiment on NCI-H522 lung is 14.1 µM; in the experiment on RPMI-8226 leukemia it was 14.3 µM. The TGI in the experiment on ACHN renal is 52.3 µM; in the experiment with EKVX NSCLC it was 35.2 µM; with IGROV1 ovarian, 37.4 µM; in the experiment on MDA-MB-231 breast it was 30.8 µM; with MDA-MB-435, 26.5 µM; in the experiment with MOLT-4 leukemia it was 29 µM. Besides, the TGI in the experiment on NCI-H522 lung was 33.3 µM; in the experiment with RPMI-8226 leukemia it was 98 µM.

For the compound `CC1(C)N=C(N)N=C(N)N1c1ccc(OCC(=O)Nc2ccc(S(=O)(=O)F)cc2Cl)c(Cl)c1`, the GI50 in the experiment on ACHN renal was 5.57 µM; in the experiment with EKVX NSCLC, above 100 µM; in the experiment with IGROV1 ovarian it was 0.42 µM; with MDA-MB-231 breast it was 54.4 µM; in the experiment on MDA-MB-435, 3.36 µM; in the experiment with MOLT-4 leukemia, 6.74 µM. The GI50 was 7.09 µM in the experiment with NCI-H522 lung and 64.9 µM in the experiment with RPMI-8226 leukemia. Also, the TGI with ACHN renal, in the experiment with EKVX NSCLC, in the experiment with IGROV1 ovarian, with MDA-MB-231 breast, in the experiment with MDA-MB-435 and in the experiment with MOLT-4 leukemia was above 100 µM in each case. Also, the TGI in the experiment on NCI-H522 lung and in the experiment with RPMI-8226 leukemia was above 100 µM in each case.

As for `NS(=O)(=O)c1ccc(N=Nc2c(O)[nH]c3ccc(C(=O)NCCCn4ccnc4)cc23)cc1`, the GI50 with ACHN renal, with EKVX NSCLC, in the experiment with IGROV1 ovarian, with MDA-MB-231 breast, in the experiment with MDA-MB-435 and with MOLT-4 leukemia was above 25 µM each time. For the same compound, the GI50 in the experiment on NCI-H522 lung and in the experiment with RPMI-8226 leukemia was above 25 µM each time. For the same compound, the TGI with ACHN renal, with EKVX NSCLC, in the experiment on IGROV1 ovarian, with MDA-MB-231 breast, in the experiment on MDA-MB-435 and in the experiment on MOLT-4 leukemia was above 25 µM throughout. Besides, the TGI with NCI-H522 lung and in the experiment on RPMI-8226 leukemia was above 25 µM each time.

As to `NC(=O)c1c[nH]c2ncnc(N)c12`, the GI50 with ACHN renal was 44.1 µM; with EKVX NSCLC, 39 µM; in the experiment on IGROV1 ovarian it was 36.6 µM; with MDA-MB-231 breast it was 91.5 µM; with MDA-MB-435, 26.6 µM; with MOLT-4 leukemia, 32.9 µM. Further, the results for the GI50 in the experiment on NCI-H522 lung and in the experiment on RPMI-8226 leukemia were above 100 µM and 14.4 µM, respectively. Also, the TGI in the experiment with ACHN renal, in the experiment with EKVX NSCLC, with IGROV1 ovarian, in the experiment with MDA-MB-231 breast, with MDA-MB-435 and with MOLT-4 leukemia was above 100 µM throughout. For the same compound, the TGI in the experiment on NCI-H522 lung is above 100 µM; in the experiment on RPMI-8226 leukemia it was 50.7 µM.

As to `O=C(CCN1CCCCC1)c1csc2ccccc12`, the TGI in the experiment with ACHN renal, in the experiment on EKVX NSCLC, in the experiment on IGROV1 ovarian, in the experiment on MDA-MB-231 breast, with MDA-MB-435 and in the experiment with MOLT-4 leukemia was above 100 µM throughout. Further, the TGI in the experiment on NCI-H522 lung and with RPMI-8226 leukemia was above 100 µM in each case.

For `CN1C(=O)C(N=Nc2ccc([N+](=O)[O-])cc2)SC1=S` (stereo unspecified), the GI50 with ACHN renal was 3.19 µM and 9.51 µM; with EKVX NSCLC, 2.82 µM and 8.54 µM; in the experiment with IGROV1 ovarian, 1.99 µM and 11.4 µM; in the experiment on MDA-MB-231 breast, 13.3 µM and 11.7 µM; in the experiment on MDA-MB-435, 3.86 µM and 16.1 µM; with MOLT-4 leukemia it was 5.82 µM and 5.81 µM. Also, the GI50 was 4.52 µM and 3 µM in the experiment on NCI-H522 lung; 2.62 µM and 2.09 µM with RPMI-8226 leukemia. Further, the TGI in the experiment with ACHN renal is 99 µM and 62.4 µM; with EKVX NSCLC, 28 µM and 96.9 µM; in the experiment on MDA-MB-231 breast, 51 µM and 44.3 µM; with MDA-MB-435, 32.3 µM and 77.1 µM; in the experiment on MOLT-4 leukemia it was above 100 µM; in the experiment on NCI-H522 lung it was 52.5 µM and 47.9 µM. In addition, the TGI in the experiment on RPMI-8226 leukemia was 52.4 µM and 18 µM.

Regarding `CCN1C(=O)/C(=c2\sc3n(c2=O)C2C(NN=3)N(CC)C(=O)N2CC)c2ccccc21` (stereo unspecified), the GI50 in the experiment with ACHN renal is 0.726 µM; in the experiment with EKVX NSCLC, 0.851 µM; in the experiment on IGROV1 ovarian, 0.574 µM; in the experiment with MDA-MB-231 breast it was 1.44 µM; in the experiment on MDA-MB-435, 0.199 µM; with MOLT-4 leukemia it was 0.82 µM. Also, the GI50 is 0.384 µM in the experiment on NCI-H522 lung and 0.366 µM in the experiment with RPMI-8226 leukemia. Besides, the TGI in the experiment with ACHN renal is above 47.9 µM; in the experiment on EKVX NSCLC it was above 100 µM; in the experiment on IGROV1 ovarian it was above 65.5 µM; with MDA-MB-231 breast, 19.3 µM; in the experiment with MDA-MB-435, 0.449 µM; in the experiment on MOLT-4 leukemia it was above 100 µM. Also, the TGI with NCI-H522 lung is 6.99 µM.

Consider `O=C(O)CN1C(=O)OC(c2ccccc2)C1=O` (stereo unspecified), for which the TGI in the experiment on ACHN renal, with EKVX NSCLC, in the experiment on IGROV1 ovarian, with MDA-MB-231 breast, in the experiment on MDA-MB-435 and in the experiment on MOLT-4 leukemia was above 100 µM in each case. Further, the TGI in the experiment on NCI-H522 lung and in the experiment on RPMI-8226 leukemia was above 100 µM in each case.
